Assay results: the supplement of paper PMC5908809

Key:
[1] = system: normal NK cells expanded with K562-aAPC; test: percent inhibition of viability; higher = more inhibition; details: 72 h, IL-2 2.5 ng/mL
Experimental: (§1)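 Drug sensitivity and resistance testing on K562-aAPC-expanded normal NK cells: 5 concentrations (10-fold steps over a 10,000-fold range), 72 h at 37 °C, viability by CellTiter-Glo normalised to DMSO and benzethonium chloride controls; DSS from the fitted curve.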

[2] = system: normal NK cells expanded with K562-aAPC; test: drug sensitivity score (DSS) (DSS units); higher = more sensitive; extreme values may be limits of the assay; details: 72 h; IL-2 2.5 ng/mL
Experimental: as §1

[3] = system: normal primary NK cells, pool 2 (3 donors) (IL-2 2.5 ng/mL); test: percent inhibition of viability; higher = more inhibition; details: 72 h
KHYG-1 (IL-2 2.5 ng/mL) [4] = test: as above; details: 72 h
NKL (IL-2 2.5 ng/mL) [5] = test: as above; details: 72 h
NK-92 (IL-2 2.5 ng/mL) [6] = test: as above; details: 72 h
DERL-7 (IL-2 2.5 ng/mL) [7] = test: as above; details: 72 h
[8] = system: normal primary NK cells, pool 1 (3 donors) (IL-2 2.5 ng/mL); test: as above; details: 72 h
YT (IL-2 2.5 ng/mL) [9] = test: as above; details: 72 h
IMC-1 (IL-2 20 ng/mL) [10] = test: as above; details: 72 h
SNK-6 (IL-2 2.5 ng/mL) [11] = test: as above; details: 72 h
KAI3 (IL-2 2.5 ng/mL) [12] = test: as above; details: 72 h
[13] = system: normal primary NK cells, pool 1 (3 donors), resting (IL-2 0 ng/mL); test: as above; details: 72 h
[14] = system: normal primary NK cells, pool 3 (3 donors) (IL-2 2.5 ng/mL); test: as above; details: 72 h
NK-YS (IL-2 2.5 ng/mL) [15] = test: as above; details: 72 h
[16] = system: normal primary NK cells, pool 2 (3 donors) (IL-2 2.5 ng/mL); test: drug sensitivity score (DSS) (DSS units); higher = more sensitive; extreme values may be limits of the assay; details: 72 h
KHYG-1 (IL-2 2.5 ng/mL) [17] = test: as above; details: 72 h
NKL (IL-2 2.5 ng/mL) [18] = test: as above; details: 72 h
NK-92 (IL-2 2.5 ng/mL) [19] = test: as above; details: 72 h
DERL-7 (IL-2 2.5 ng/mL) [20] = test: as above; details: 72 h
[21] = system: normal primary NK cells, pool 1 (3 donors) (IL-2 2.5 ng/mL); test: as above; details: 72 h
YT (IL-2 2.5 ng/mL) [22] = test: as above; details: 72 h
IMC-1 (IL-2 20 ng/mL) [23] = test: as above; details: 72 h
SNK-6 (IL-2 2.5 ng/mL) [24] = test: as above; details: 72 h
KAI3 (IL-2 2.5 ng/mL) [25] = test: as above; details: 72 h
[26] = system: normal primary NK cells, pool 1 (3 donors), resting (IL-2 0 ng/mL); test: as above; details: 72 h
[27] = system: normal primary NK cells, pool 3 (3 donors) (IL-2 2.5 ng/mL); test: as above; details: 72 h
NK-YS (IL-2 2.5 ng/mL) [28] = test: as above; details: 72 h

COc1ccccc1S(=O)(=O)Nc1ccc2c(c1)CN(C)C(=O)N2 [PFI-1] (max concentration tested 10000 nM)
percent inhibition of viability [%]
Details | 1 nM | 10 nM | 100 nM | 1000 nM | 10000 nM
DERL-7 (IL-2 2.5 ng/mL) [7] | -2.29 | 2.86 | 9.32 | 41.8 | 91.8
IMC-1 (IL-2 20 ng/mL) [10] | -2.65 | -6.11 | -1.36 | 1.44 | 52.3
KAI3 (IL-2 2.5 ng/mL) [12] | -2.2 | 1.8 | -7.46 | 5.35 | 48
KHYG-1 (IL-2 2.5 ng/mL) [4] | -2.18 | -2.43 | -0.21 | 19.9 | 89.2
NK-92 (IL-2 2.5 ng/mL) [6] | -6.34 | 6.35 | -0.51 | -18.3 | 14.6
NK-YS (IL-2 2.5 ng/mL) [15] | -6.14 | -3.35 | 2.77 | 24.8 | 70
NKL (IL-2 2.5 ng/mL) [5] | -16 | -14.6 | -8.15 | 32 | 70.4
SNK-6 (IL-2 2.5 ng/mL) [11] | -3.16 | -6.59 | 7.82 | 7.89 | 48.9
YT (IL-2 2.5 ng/mL) [9] | 1.99 | 0.44 | -0.45 | 5.52 | 53.1
[1] | 1.38 | -2.34 | 0.83 | 10.4 | 45.7
[3] | -9.32 | -3.5 | -1.83 | 9.71 | 50.9
[8] | 1.67 | -1.14 | -0.56 | 0.29 | 39.4
[13] | -7.18 | 7.82 | -0.65 | -5.17 | 29.6
[14] | -2.26 | -5.87 | 0.68 | 4.06 | 32.9

Details | drug sensitivity score
DERL-7 (IL-2 2.5 ng/mL) [20] | 9.94
IMC-1 (IL-2 20 ng/mL) [23] | 2.96
KAI3 (IL-2 2.5 ng/mL) [25] | 3.39
KHYG-1 (IL-2 2.5 ng/mL) [17] | 8.09
NK-92 (IL-2 2.5 ng/mL) [19] | 0.06
NK-YS (IL-2 2.5 ng/mL) [28] | 7.15
NKL (IL-2 2.5 ng/mL) [18] | 8.04
SNK-6 (IL-2 2.5 ng/mL) [24] | 3.9
YT (IL-2 2.5 ng/mL) [22] | 3.74
[2] | 4.03
[16] | 4.3
[21] | 1.98
[26] | 0.99
[27] | 2.17

COc1cc2ncnc(Nc3ccc(F)c(Cl)c3)c2cc1NC(=O)/C=C/CN1CCCCC1 [Dacomitinib] (max concentration tested 1000 nM)
percent inhibition of viability [%]
Details | 0.1 nM | 1 nM | 10 nM | 100 nM | 1000 nM
DERL-7 (IL-2 2.5 ng/mL) [7] | -5.58 | -2.85 | -0.73 | -3.8 | 35.9
IMC-1 (IL-2 20 ng/mL) [10] | 9.55 | 7.6 | 11.6 | 10.1 | 13.4
KAI3 (IL-2 2.5 ng/mL) [12] | 7.94 | 10.2 | 11.4 | 7.46 | 31.4
KHYG-1 (IL-2 2.5 ng/mL) [4] | 10.5 | 10.2 | 7.74 | 5.43 | 16.9
NK-92 (IL-2 2.5 ng/mL) [6] | 14.8 | 4.75 | 15.7 | -7.18 | 27.1
NK-YS (IL-2 2.5 ng/mL) [15] | 7.35 | 1.97 | 10.7 | 6.81 | 23.5
NKL (IL-2 2.5 ng/mL) [5] | 3.41 | 22.9 | 21.4 | 24.5 | 43.9
SNK-6 (IL-2 2.5 ng/mL) [11] | 6.36 | -3.37 | 6.76 | 1.63 | 22.4
YT (IL-2 2.5 ng/mL) [9] | 5.15 | 4.77 | 7.83 | 2.51 | 14.2
[1] | 4.92 | 5.66 | 5.66 | 10.2 | 29.5
[3] | -2.98 | -1.98 | 1.99 | -4.15 | 33
[8] | 2.94 | -9.71 | -7.32 | -13.9 | 28.8
[13] | 4.51 | -7.96 | 0.41 | -14.9 | 59.7
[14] | 0.64 | 1.31 | -1.6 | -10.6 | 17.6

Details | drug sensitivity score
DERL-7 (IL-2 2.5 ng/mL) [20] | 1.45
IMC-1 (IL-2 20 ng/mL) [23] | 0.74
KAI3 (IL-2 2.5 ng/mL) [25] | 2.88
KHYG-1 (IL-2 2.5 ng/mL) [17] | 0
NK-92 (IL-2 2.5 ng/mL) [19] | 0.79
NK-YS (IL-2 2.5 ng/mL) [28] | 1.38
NKL (IL-2 2.5 ng/mL) [18] | 8.95
SNK-6 (IL-2 2.5 ng/mL) [24] | 0.98
YT (IL-2 2.5 ng/mL) [22] | 0
[2] | 2.02
[16] | 1.25
[21] | 0.77
[26] | 2.49
[27] | 0.2

O=C(NC1CCNCC1)c1n[nH]cc1NC(=O)c1c(Cl)cccc1Cl [AT7519] (max concentration tested 10000 nM)
percent inhibition of viability [%]
Details | 1 nM | 10 nM | 100 nM | 1000 nM | 10000 nM
DERL-7 (IL-2 2.5 ng/mL) [7] | 3.68 | -3.37 | -6.6 | 99.2 | 100
IMC-1 (IL-2 20 ng/mL) [10] | 5.46 | 1.26 | -0.14 | 96.8 | 96.4
KAI3 (IL-2 2.5 ng/mL) [12] | 1.05 | -1.69 | 4.7 | 86.2 | 94
KHYG-1 (IL-2 2.5 ng/mL) [4] | -2.18 | -4.7 | 1.67 | 61.9 | 96.3
NK-92 (IL-2 2.5 ng/mL) [6] | -10.5 | -1.16 | -2.58 | 32.2 | 90.7
NK-YS (IL-2 2.5 ng/mL) [15] | -2.23 | -4.04 | 9.45 | 96.6 | 93.7
NKL (IL-2 2.5 ng/mL) [5] | 1.32 | 5.88 | 13.8 | 102 | 97.5
SNK-6 (IL-2 2.5 ng/mL) [11] | 6.43 | -7.68 | 0.7 | 50.8 | 48.4
YT (IL-2 2.5 ng/mL) [9] | 0.46 | -3.64 | 6.82 | 79.9 | 97
[1] | -3.7 | 0.1 | -4.47 | 99.1 | 100
[3] | -5.51 | -3.1 | 0.18 | 95.2 | 95.8
[8] | -13.5 | -8.03 | 6.78 | 96.9 | 97.9
[13] | -42.2 | -37.4 | -20.6 | 90.1 | 89.6
[14] | -13.9 | -11.2 | -5.85 | 94.7 | 98.8

Details | drug sensitivity score
DERL-7 (IL-2 2.5 ng/mL) [20] | 17.3
IMC-1 (IL-2 20 ng/mL) [23] | 17.4
KAI3 (IL-2 2.5 ng/mL) [25] | 16.3
KHYG-1 (IL-2 2.5 ng/mL) [17] | 12.7
NK-92 (IL-2 2.5 ng/mL) [19] | 9.5
NK-YS (IL-2 2.5 ng/mL) [28] | 18.9
NKL (IL-2 2.5 ng/mL) [18] | 20.3
SNK-6 (IL-2 2.5 ng/mL) [24] | 9.33
YT (IL-2 2.5 ng/mL) [22] | 15.6
[2] | 17.5
[16] | 17.2
[21] | 18.6
[26] | 15.1
[27] | 16.8
